Legend:
[1] = target: T1, Cholecystokinin receptor type A (Rattus norvegicus, UniProt P30551); experiment: The concentration (nM) producing half-maximal inhibition of specific binding of [1251] Bolton Hunter CCK-8 to CCK receptors in the rat pancreas (CCK-A);value ranges from 900 to 1900
T1 sequence (P30551 whole entry): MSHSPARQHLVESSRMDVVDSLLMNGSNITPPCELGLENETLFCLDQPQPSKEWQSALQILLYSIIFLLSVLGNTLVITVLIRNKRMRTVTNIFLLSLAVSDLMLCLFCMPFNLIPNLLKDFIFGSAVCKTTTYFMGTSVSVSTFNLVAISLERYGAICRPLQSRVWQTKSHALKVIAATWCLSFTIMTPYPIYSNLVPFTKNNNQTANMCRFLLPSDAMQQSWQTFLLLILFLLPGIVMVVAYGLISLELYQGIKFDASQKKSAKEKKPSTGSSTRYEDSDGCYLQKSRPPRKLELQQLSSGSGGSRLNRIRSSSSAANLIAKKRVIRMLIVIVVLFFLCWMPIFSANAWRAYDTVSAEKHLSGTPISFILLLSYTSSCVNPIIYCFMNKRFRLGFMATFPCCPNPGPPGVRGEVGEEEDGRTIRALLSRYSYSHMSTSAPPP

[2] = target: T2, Gastrin/cholecystokinin type B receptor (Mus musculus, UniProt P56481); experiment: The concentration (nM) producing half-maximal inhibition of specific binding of [1251] Bolton Hunter CCK-8 to CCK receptors in the mouse cerebral cortex (CCK-B);value ranges from 8.6 to 32; format: tissue-based
T2 sequence (P56481 whole entry): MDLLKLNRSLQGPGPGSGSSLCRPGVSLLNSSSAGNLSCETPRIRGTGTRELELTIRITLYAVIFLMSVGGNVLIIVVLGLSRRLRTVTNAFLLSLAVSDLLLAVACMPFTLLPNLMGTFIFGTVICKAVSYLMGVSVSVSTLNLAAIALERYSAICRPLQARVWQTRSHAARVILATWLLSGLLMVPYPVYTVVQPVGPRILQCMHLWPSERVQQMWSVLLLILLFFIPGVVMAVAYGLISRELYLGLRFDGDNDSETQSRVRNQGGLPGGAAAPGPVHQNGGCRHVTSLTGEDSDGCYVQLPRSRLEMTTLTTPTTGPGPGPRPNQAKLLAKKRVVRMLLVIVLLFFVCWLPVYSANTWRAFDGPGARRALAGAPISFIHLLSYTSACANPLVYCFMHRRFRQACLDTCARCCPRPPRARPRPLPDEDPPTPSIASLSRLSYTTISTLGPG

[3] = Dissociation constant, pKa was determined; format: physicochemical
[4] = target: T2, Gastrin/cholecystokinin type B receptor; experiment: The concentration (nM) producing half-maximal inhibition of specific binding of [1251] Bolton Hunter CCK-8 to CCK receptors in the mouse cerebral cortex (CCK-B);value ranges from 3.0 to 8.1; format: tissue-based
[5] = target: T1, Cholecystokinin receptor type A; experiment: The concentration (nM) producing half-maximal inhibition of specific binding of [1251] Bolton Hunter CCK-8 to CCK receptors in the rat pancreas (CCK-A); value ranges from 1000 to 1100
[6] = target: T2, Gastrin/cholecystokinin type B receptor; experiment: The concentration (nM) producing half-maximal inhibition of specific binding of [1251] Bolton Hunter CCK-8 to CCK receptors in the mouse cerebral cortex (CCK-B);value ranges from 63 to 170; format: tissue-based
[7] = target: T1, Cholecystokinin receptor type A; experiment: The concentration (nM) producing half-maximal inhibition of specific binding of [1251] Bolton Hunter CCK-8 to CCK receptors in the rat pancreas (CCK-A); value ranges from 680 to 970
[8] = target: T2, Gastrin/cholecystokinin type B receptor; experiment: The concentration (nM) producing half-maximal inhibition of specific binding of [1251] Bolton Hunter CCK-8 to CCK receptors in the mouse cerebral cortex (CCK-B);value ranges from 22 to 24; format: tissue-based
[9] = Dissociation constant, pKa was determined; experiment 1; format: physicochemical
[10] = Dissociation constant, pKa was determined; experiment 2; format: physicochemical
[11] = target: T1, Cholecystokinin receptor type A; experiment: The concentration (nM) producing half-maximal inhibition of specific binding of [1251] Bolton Hunter CCK-8 to CCK receptors in the rat pancreas (CCK-A);value ranges from 2300 to 3500
[12] = target: T1, Cholecystokinin receptor type A; experiment: The concentration (nM) producing half-maximal inhibition of specific binding of [1251] Bolton Hunter CCK-8 to CCK receptors in the rat pancreas (CCK-A);value ranges from 1100 to 1500
[13] = target: T2, Gastrin/cholecystokinin type B receptor; experiment: The concentration (nM) producing half-maximal inhibition of specific binding of [1251] Bolton Hunter CCK-8 to CCK receptors in the mouse cerebral cortex (CCK-B);value ranges from 5.3 to 7.7; format: tissue-based
[14] = target: T2, Gastrin/cholecystokinin type B receptor; experiment: The concentration (nM) producing half-maximal inhibition of specific binding of [1251] Bolton Hunter CCK-8 to CCK receptors in the mouse cerebral cortex (CCK-B);value ranges from 62 to 98; format: tissue-based
[15] = target: T1, Cholecystokinin receptor type A; experiment: The concentration (nM) producing half-maximal inhibition of specific binding of [1251] Bolton Hunter CCK-8 to CCK receptors in the rat pancreas (CCK-A);value ranges from 620 to 770

`CC(Cc1c[nH]c2ccccc12)(NC(=O)OC1C2CC3CC(C2)CC1C3)C(=O)NC[C@H](NC(=O)CCC(=O)NO)c1ccccc1` (single isomer, unassigned) showed an IC50 [1] of 1800 nM, an IC50 [2] of 14 nM and a pKa [3] greater than 9.5.
With `CC(Cc1c[nH]c2ccccc12)(NC(=O)OC1C2CC3CC(C2)CC1C3)C(=O)NC[C@H](NC(=O)CCc1nnn[nH]1)c1ccccc1` (single isomer, unassigned) the IC50 [4] was 5.6 nM, the IC50 [5] was 1070 nM and the pKa [3] was 5.4.
Work on `C[C@@](Cc1c[nH]c2ccccc12)(NC(=O)OC1C2CC3CC(C2)CC1C3)C(=O)NC[C@H](NC(=O)CCC(=O)O)c1ccccc1` (stereo not given in full) yielded a pKa [3] of 5.6.
In the case of `CC(Cc1c[nH]c2ccccc12)(NC(=O)OC1C2CC3CC(C2)CC1C3)C(=O)NC[C@H](NC(=O)CCNC(=O)C(F)(F)F)c1ccccc1` (single isomer, unassigned), the IC50 [6] is reported as 89 nM, the IC50 [7] is reported as 800 nM and the pKa [3] is reported as greater than 9.5.
`CC(Cc1c[nH]c2ccccc12)(NC(=O)OC1C2CC3CC(C2)CC1C3)C(=O)NC[C@H](NC(=O)CCP(=O)(O)O)c1ccccc1` (single isomer, unassigned) showed an IC50 [8] of 23 nM, a pKa [9] of 3.4 and a pKa [10] of 7.8. For the same compound, the IC50 [11] was 2700 nM.
In the case of `CC(Cc1c[nH]c2ccccc12)(NC(=O)OC1C2CC3CC(C2)CC1C3)C(=O)NC[C@H](NC(=O)CCC(=O)Nc1nn[nH]n1)c1ccccc1` (single isomer, unassigned), the IC50 [12] is reported as 1200 nM, the IC50 [13] is reported as 6.3 nM and the pKa [3] is reported as 5.2.
`CC(Cc1c[nH]c2ccccc12)(NC(=O)OC1C2CC3CC(C2)CC1C3)C(=O)NC[C@H](NC(=O)CCNS(=O)(=O)C(F)(F)F)c1ccccc1` (single isomer, unassigned) gave an IC50 [14] of 77 nM, an IC50 [15] of 680 nM and a pKa [3] of 7.9.
